# How the values were obtained:
# healthy individuals [1] = assay: Stimulated salivary flow (SSF), change from pre-dose baseline; type: in vivo, human
# Description: Stimulated salivary flow (SSF) and dry mouth (assessed using a “visual analog scale,” or VAS) were determined at frequent intervals after administration of each treatment. Urine frequency, urine volume/void, and fluid volume consumed were also assessed for each treatment. […] SSF was measured in the following manner. […] The subject may have expectorated saliva in the containers several times if there was excessive saliva. The SSF values were tabulated at each time point and descriptive statistics were generated by treatment, for measured values and changes from pre-dose baseline. Total weight of saliva over time was analyzed using analysis of variance, with Tukey's method of comparison between treatments. Dry mouth was tabulated at each time point and descriptive statistics were generated by treatment, for measured values and changes from pre-dose baseline. Urine frequency, urine volume/void and fluid volume consumed were tabulated and summarized by treatment.
# healthy individuals [2] = assay: Dry mouth assessment by visual analog scale (VAS); type: in vivo, human; conditions: for Change from Baseline of Dry Mouth Assessment (VAS), Mean: VAS 0=not dry, 10=very dry
# Description: Stimulated salivary flow (SSF) and dry mouth (assessed using a “visual analog scale,” or VAS) were determined at frequent intervals after administration of each treatment. Urine frequency, urine volume/void, and fluid volume consumed were also assessed for each treatment.
# The SSF values were tabulated at each time point and descriptive statistics were generated by treatment, for measured values and changes from pre-dose baseline. Total weight of saliva over time was analyzed using analysis of variance, with Tukey's method of comparison between treatments. Dry mouth was tabulated at each time point and descriptive statistics were generated by treatment, for measured values and changes from pre-dose baseline. Urine frequency, urine volume/void and fluid volume consumed were tabulated and summarized by treatment.
# For qualitative assessment of dry mouth, the “visual analog scale,” or VAS, scale (0=not dry, 10=very dry, measured in centimeters) was used. Each subject was asked to mark a vertical line the VAS scale on how dry their mouth was at that moment.
# VAS is a well-known method. In this method, subjects were shown a line scaled from 0 to 10 cm. Subjects were asked to rate the subjective criterion from 0-10 cm and make a mark on the line corresponding to their rating. For example, subjects were told that 0 cm on the line means no dry mouth at all and 10 cm on the line means extreme dry mouth. The subjects rated their extent of dry mouth on the line. Changes in the extent of dry mouth of a subject were measured using this technique throughout the treatment period.
SMILES,Mean SSF Change from Pre-dose Baseline (healthy individuals [1]; 1 hour post-dose) [g],Mean SSF Change from Pre-dose Baseline (healthy individuals [1]; 2 hours post-dose) [g],Mean SSF Change from Pre-dose Baseline (healthy individuals [1]; 3 hours post-dose) [g],Mean SSF Change from Pre-dose Baseline (healthy individuals [1]; 4 hours post-dose) [g],Mean SSF Change from Pre-dose Baseline (healthy individuals [1]; 6 hours post-dose) [g],Mean SSF Change from Pre-dose Baseline (healthy individuals [1]; 9 hours post-dose) [g],Mean SSF Change from Pre-dose Baseline (healthy individuals [1]; 12 hours post-dose) [g],"SSF after administration, in words (healthy individuals [1]; compared with placebo and pilocarpine alone (Treatment B))","Change from Baseline of Dry Mouth Assessment (VAS), Mean (healthy individuals [2]; 1 hour post-dose) [cm]","Change from Baseline of Dry Mouth Assessment (VAS), Mean (healthy individuals [2]; 2 hours post-dose) [cm]","Change from Baseline of Dry Mouth Assessment (VAS), Mean (healthy individuals [2]; 3 hours post-dose) [cm]","Change from Baseline of Dry Mouth Assessment (VAS), Mean (healthy individuals [2]; 4 hours post-dose) [cm]","Change from Baseline of Dry Mouth Assessment (VAS), Mean (healthy individuals [2]; 6 hours post-dose) [cm]","Change from Baseline of Dry Mouth Assessment (VAS), Mean (healthy individuals [2]; […] post-dose) [cm]","Mean VAS scores of dry mouth over time (healthy individuals [2]; 1 hour and 2 hour time points, compared with each of the other treatments)"
"Cc1ccc(O)c([C@H](CCN(C(C)C)C(C)C)c2ccccc2)c1 [Treatment A, tolterodine]",-0.3,-0.42,-0.28,0.05,0.21,-0.06,0.27,decrease in SSF,0.03,0.63,0.97,0.56,0.00,0.56,
"CC[C@@H]1C(=O)OC[C@@H]1Cc1cncn1C [Treatment B, pilocarpine]",4.55,2.33,1.07,0.64,0.32,-0.20,-0.08,,−3.00,−2.34,−0.94,−0.69,−0.41,−1.38,markedly lower

# Reference: patent US20130296392A1, “METHODS FOR THE TREATMENT OF OVERACTIVE BLADDER” (THERAVIDA, INC., priority 2012, published 2013)
